Earlier results, collected in patent publication US20240229143A1, “FORMULATION OF PEPTIDE IMMUNOTHERAPIES” (priority 2020, published 2024).

Experiments:
[1] = single amino acid
[2] = single amino acid; octanol:water
[3] = single amino acid; remark: listed apart in the source

Compound | Log D7.4 [1] | Log P [2] | pl [3]
C[C@H](N)C(=O)O [Alanine (Ala)] | −0.27 | −2.89 | 6.00
N=C(N)NCCC[C@H](N)C(=O)O [Arginine (Arg)] | −1.65 |  | 10.76
NC(=O)C[C@H](N)C(=O)O [Asparagine (Asn)] | −0.98 | −3.41 | 5.41
N[C@@H](CC(=O)O)C(=O)O [Asparic Acid (Asp)] | −2.06 | −3.38 | 2.77
N[C@@H](CS)C(=O)O [Cysteine (Cys)] |  |  | 5.07
N[C@@H](CCC(=O)O)C(=O)O [Glutamic Acid (Glu)] | −2.19 | −2.94 | 3.22
NC(=O)CC[C@H](N)C(=O)O [Glutamine (Gln)] |  | −3.24 | 
NCC(=O)O [Glycine (Gly)] | −0.22 | −3.25 | 5.97
N[C@@H](Cc1c[nH]cn1)C(=O)O [Histidine (His)] | −0.44 | −3.56 | 7.59
CC[C@H](C)[C@H](N)C(=O)O [Isoleucine (Ile)] | 0.69 | −1.72 | 6.20
CC(C)C[C@H](N)C(=O)O [Leucine (Leu)] |  | −1.61 | 
NCCCC[C@H](N)C(=O)O [Lysine (Lys)] | −2.27 | −4.44 | 9.74
CSCC[C@H](N)C(=O)O [Methionine (Met)] | 0.51 | −1.84 | 5.74
N[C@@H](Cc1ccccc1)C(=O)O [Phenylalanine (Phe)] | 1.16 | −1.63 | 5.48
O=C(O)[C@@H]1CCCN1 [Proline (Pro)] | 0.15 | −2.50 | 6.30
N[C@@H](CO)C(=O)O [Serine (Ser)] |  |  | 5.68
C[C@@H](O)[C@H](N)C(=O)O [Threonine (Thr)] | −0.26 | −2.92 | 5.60
N[C@@H](Cc1c[nH]c2ccccc12)C(=O)O [Tryptophan (Trp)] | 1.46 | −1.75 | 5.89
N[C@@H](Cc1ccc(O)cc1)C(=O)O [Tyrosine (Tyr)] |  |  | 5.66
CC(C)[C@H](N)C(=O)O [Valine (Val)] | 0.32 | −2.08 | 5.96
